IC50 data for 33 compounds are collected here from patent US11414395B2, “Heterocyclic compounds as modulators of mGluR7” (PRAGMA Therapeutics, priority 2017, dated 2022).

As usually defined, the IC50 is the concentration that gives 50% inhibition. High values mean lower potency, low ones higher potency.

Sequence of human mGluR7 (Q14831 35-915): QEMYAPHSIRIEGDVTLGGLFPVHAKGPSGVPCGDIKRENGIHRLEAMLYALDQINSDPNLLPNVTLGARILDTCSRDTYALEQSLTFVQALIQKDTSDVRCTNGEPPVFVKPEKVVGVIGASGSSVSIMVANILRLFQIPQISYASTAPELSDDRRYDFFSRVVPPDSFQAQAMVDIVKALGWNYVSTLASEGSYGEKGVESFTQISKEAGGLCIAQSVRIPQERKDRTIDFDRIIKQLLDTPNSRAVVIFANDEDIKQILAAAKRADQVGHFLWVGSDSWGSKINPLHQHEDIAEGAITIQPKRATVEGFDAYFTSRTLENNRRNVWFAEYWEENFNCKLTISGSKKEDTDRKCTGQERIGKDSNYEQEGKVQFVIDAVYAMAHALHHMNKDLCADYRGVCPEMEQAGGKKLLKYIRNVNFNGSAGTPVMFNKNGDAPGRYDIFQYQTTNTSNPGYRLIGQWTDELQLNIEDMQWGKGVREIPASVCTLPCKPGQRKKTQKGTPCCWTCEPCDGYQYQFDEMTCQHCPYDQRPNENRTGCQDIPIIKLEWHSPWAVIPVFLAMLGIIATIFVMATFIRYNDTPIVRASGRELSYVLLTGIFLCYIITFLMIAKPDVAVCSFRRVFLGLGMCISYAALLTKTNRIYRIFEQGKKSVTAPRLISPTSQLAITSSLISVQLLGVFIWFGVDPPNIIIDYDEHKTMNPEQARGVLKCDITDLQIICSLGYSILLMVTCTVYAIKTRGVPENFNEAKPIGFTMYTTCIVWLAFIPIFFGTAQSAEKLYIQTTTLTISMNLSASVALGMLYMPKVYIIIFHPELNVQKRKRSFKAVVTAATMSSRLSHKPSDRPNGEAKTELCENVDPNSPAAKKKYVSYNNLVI

This experiment addresses human mGluR7 (Homo sapiens (Human), UniProt Q14831). The experiment is described as follows: Inositol monophosphate production assay (IP1 assay), inhibition of L-AP4 response. The experiment is classed as cell-based. To be noted: mean IC50 from at least two independent experiments; HEK293 cells transiently transfected with mGluR7, Gqtop and EAAC1; IP1 production vs EC80 L-AP4. An excerpt: Inositol Monophosphate Production Assay (IP1 Assay):
HEK293 cells were transiently transfected with mGluR7 by electroporation and seeded in a poly-ornithine coated 96-well plate at the density of 150 000 cells/well. To allow the monitoring of receptor activity through measurements of inositol monophosphate (IP1) production, mGluR7 was transfected with a chimeric Gq/Gi protein (Gqtop). and was also co-transfected with EAAC1, a glutamate transporter, to avoid influence of extracellular glutamate. Cells were cultured in Dulbecco's Modified Eagle Medium (DMEM, Invitrogen, Cergy Pontoise, France), supplemented with 10% of Fetal Bovine Serum (FBS). Medium was changed by Glutamax™ (Invitrogen, Cergy Pontoise, France) to reduce extracellular glutamate concentration 3 hours before stimulation
IP1 production was determined using the IP-One HTRF kit (CisBio Bioassays), a competitive immunoassay using cryptate-labeled anti-IP1 antibody and d2-labeled IP, according to the manufacturer's recommendations. All points were realized in triplicate.
Data were analyzed with Prism 6 software (GraphPadSoftware, San Diego, Calif.). Typically, in each experiment, a four-parameter concentration-response curve equation was used to fit data and potency (IC50) is estimated as logarithms (log IC50). Data were calculated as % of the control mGluR7 agonist L-AP4 response, defined as the response that is generated upon addition of an EC80-equivalent concentration of L-AP4.
The Table 2 below represents the mean IC50 obtained from at least two independent experiments.
Regarding `COc1ccc(F)c(C2CCc3c(cnn(-c4ncccn4)c3=O)C2)c1` (stereo not drawn) [Example 74, 6-(2-fluoro-5-methoxyphenyl)-2-(pyrimidin-2-yl)-5,6,7,8-tetrahydrophthalazin-1(2H)-one], the half-inhibitory concentration (IC50) was < 500 nM.
For `Cc1ccc(C2CCc3c(cnn(-c4cccc(F)n4)c3=O)C2)c(C)c1` (stereo not drawn) [Example 9, 6-(2,4-dimethylphenyl)-2-(6-fluoropyridin-2-yl)-5,6,7,8-tetrahydrophthalazin-1(2H)-one] the value was < 500 nM; for `COc1nc(-n2ncc3c(c2=O)CCC(c2ccc(C)cc2C)C3)ncc1C` (stereo not drawn) [Example 56, 6-(2,4-dimethylphenyl)-2-(4-methoxy-5-methylpyrimidin-2-yl)-5,6,7,8-tetrahydrophthalazin-1(2H)-one], < 500 nM.
For `O=c1c2c(cnn1-c1ncccn1)CC(c1cccc(OC3CC3)c1Cl)CC2` (single isomer, unassigned; (+)) [Example 131, (+)-6-(2-chloro-3-cyclopropoxyphenyl)-2-(pyrimidin-2-yl)-5,6,7,8-tetrahydrophthalazin-1(2H)-one] the value was < 500 nM; for `COc1ccc(C2CCc3c(cnn(-c4ccccn4)c3=O)C2)cc1` (stereo not drawn) [Example 3, 6-(4-methoxyphenyl)-2-(pyridin-2-yl)-5,6,7,8-tetrahydrophthalazin-1(2H)-one], 1000 to 30000 nM; for `Cc1ccc(C2CCc3c(cnn(-c4ccc(F)cn4)c3=O)C2)c(C)c1` (stereo not drawn) [Example 10, 6-(2,4-dimethylphenyl)-2-(5-fluoropyridin-2-yl)-5,6,7,8-tetrahydrophthalazin-1(2H)-one], < 500 nM.
For `O=c1c2c(cnn1-c1ccccn1)CC(c1cccc(C3CC3)c1)CC2` (stereo not drawn) [Example 63, 6-(3-cyclopropylphenyl)-2-(pyridin-2-yl)-5,6,7,8-tetrahydrophthalazin-1(2H)-one] the value was 500 to 1000 nM.
On to `COc1cccc(C2CCc3c(cnn(-c4ncc(O)cn4)c3=O)C2)c1C` (stereo not drawn) [Example 45, 2-(5-hydroxypyrimidin-2-yl)-6-(3-methoxy-2-methylphenyl)-5,6,7,8-tetrahydrophthalazin-1(2H)-one], for which the 50% inhibitory concentration (IC50) is < 500 nM.
As to `Cc1c(OC2CC2)cccc1C1CCc2c(cnn(-c3ncccn3)c2=O)C1` (stereo not drawn) [Example 104, 6-(3-cyclopropoxy-2-methylphenyl)-2-(pyrimidin-2-yl)-5,6,7,8-tetrahydrophthalazin-1(2H)-one], the IC50 is < 500 nM.
For `COc1cnc(-n2ncc3c(c2=O)CCC(c2ccc(C)cc2C)C3)nc1` (stereo not drawn) [Example 53, 6-(2,4-dimethylphenyl)-2-(5-methoxypyrimidin-2-yl)-5,6,7,8-tetrahydrophthalazin-1(2H)-one] the value was < 500 nM; for `O=c1c2c(cnn1-c1ccccn1)CC(c1cccc(OC3CC3)c1)CC2` (stereo not drawn) [Example 66, 6-(3-cyclopropoxyphenyl)-2-(pyridin-2-yl)-5,6,7,8-tetrahydrophthalazin-1(2H)-one], < 500 nM.
Consider `COc1cccc(C2CCc3c(cnn(-c4ccccn4)c3=O)C2)c1` (stereo not drawn) [Example 2, 6-(3-methoxyphenyl)-2-(pyridin-2-yl)-5,6,7,8-tetrahydrophthalazin-1(2H)-one], for which the IC50 was in the range of 500 to 1000 nM.
For `Cc1ccc(C2CCc3c(cnn(-c4cn(C)cn4)c3=O)C2)c(C)c1` (stereo not drawn) [Example 34, 6-(2,4-dimethylphenyl)-2-(1-methyl-1H-imidazol-4-yl)-5,6,7,8-tetrahydrophthalazin-1(2H)-one] the value was 1000 to 30000 nM.
Next, `COc1ccc(-n2ncc3c(c2=O)CCC(c2ccc(C)cc2C)C3)nc1` (stereo not drawn) [Example 14, 6-(2,4-dimethylphenyl)-2-(5-methoxypyridin-2-yl)-5,6,7,8-tetrahydrophthalazin-1(2H)-one]: < 500 nM; `COc1ccc(C)c(C2CCc3c(cnn(-c4ncc(Cl)cn4)c3=O)C2)c1` (stereo not drawn) [Example 49, 2-(5-chloropyrimidin-2-yl)-6-(5-methoxy-2-methylphenyl)-5,6,7,8-tetrahydrophthalazin-1(2H)-one]: < 500 nM.
For `COc1cnc(-n2ncc3c(c2=O)CCC(c2cc(OC)ccc2C)C3)nc1` (stereo not drawn) [Example 48, 6-(5-methoxy-2-methylphenyl)-2-(5-methoxypyrimidin-2-yl)-5,6,7,8-tetrahydrophthalazin-1(2H)-one] the value was 500 to 1000 nM.
On to `Cc1cnc(-n2ncc3c(c2=O)CCC(c2cccc(OC4CC4)c2C)C3)nc1` (single isomer, unassigned; (-)) [Example 132, (−)-6-(3-cyclopropoxy-2-methylphenyl)-2-(5-methylpyrimidin-2-yl)-5,6,7,8-tetrahydrophthalazin-1(2H)-one], for which the 50% inhibitory concentration (IC50) was < 500 nM.
For `Cc1cnc(-n2ncc3c(c2=O)CCC(c2cccc(OC4CC4)c2C)C3)nc1` (stereo not drawn) [Example 93, 6-(3-cyclopropoxy-2-methylphenyl)-2-(5-methylpyrimidin-2-yl)-5,6,7,8-tetrahydrophthalazin-1(2H)-one] the value was < 500 nM; for `Cc1ccc(C2CCc3c(cnn(-c4ncccc4C#N)c3=O)C2)c(C)c1` (stereo not drawn) [Example 24, 2-(6-(2,4-dimethylphenyl)-1-oxo-5,6,7,8-tetrahydrophthalazin-2(1H)-yl)nicotinonitrile], < 500 nM; for `Cc1cc(Cl)ccc1C1CCc2c(cnn(-c3ncccn3)c2=O)C1` (stereo not drawn) [Example 98, 6-(4-chloro-2-methylphenyl)-2-(pyrimidin-2-yl)-5,6,7,8-tetrahydrophthalazin-1(2H)-one], < 500 nM.
With `Cc1cnc(-n2ncc3c(c2=O)CCC(c2cccc(OC4CC4)c2C)C3)nc1` (single isomer, unassigned; (+)) [Example 133, (+)-6-(3-cyclopropoxy-2-methylphenyl)-2-(5-methylpyrimidin-2-yl)-5,6,7,8-tetrahydrophthalazin-1(2H)-one], the IC50 fell in the range of 1000 to 30000 nM.
Turning to `COc1cccc(C2CCc3c(cnn(-c4ncccn4)c3=O)C2)c1F` (stereo not drawn) [Example 79, 6-(2-fluoro-3-methoxyphenyl)-2-(pyrimidin-2-yl)-5,6,7,8-tetrahydrophthalazin-1(2H)-one], the 50% inhibitory concentration (IC50) is < 500 nM.
For `COc1ccc(C2CCc3c(cnn(-c4ncccn4)c3=O)C2)c(C)c1` (stereo not drawn) [Example 87, 6-(4-methoxy-2-methylphenyl)-2-(pyrimidin-2-yl)-5,6,7,8-tetrahydrophthalazin-1(2H)-one] the value was < 500 nM.
Next, `COc1cccc(C2CCc3c(cnn(-c4ncc(C)cn4)c3=O)C2)c1Cl` (single isomer, unassigned; (-)) [Example 134, (−)-6-(2-chloro-3-methoxyphenyl)-2-(5-methylpyrimidin-2-yl)-5,6,7,8-tetrahydrophthalazin-1(2H)-one]: < 500 nM.
Next, `Cc1ccc(C2CCc3c(ncn(-c4ccccn4)c3=O)C2)c(C)c1` (stereo not drawn) [Example 122, 7-(2,4-dimethylphenyl)-3-(pyridin-2-yl)-5,6,7,8-tetrahydroquinazolin-4(3H)-one]: < 500 nM; `COc1cccc(C2CCc3c(cnn(-c4ccc(O)cn4)c3=O)C2)c1C` (stereo not drawn) [Example 38, 2-(5-hydroxypyridin-2-yl)-6-(3-methoxy-2-methylphenyl)-5,6,7,8-tetrahydrophthalazin-1(2H)-one]: < 500 nM.
For `Cc1ccc(C2CCc3c(cnn(-c4ncc(CN5CCOCC5)cn4)c3=O)C2)c(C)c1` (stereo not drawn) [Example 57, 6-(2,4-dimethylphenyl)-2-(5-(morpholinomethyl)pyrimidin-2-yl)-5,6,7,8-tetrahydrophthalazin-1(2H)-one], the IC50 is < 500 nM.
For `Cc1ccc(-n2ncc3c(c2=O)CCC(c2ccc(C)cc2C)C3)nc1` (stereo not drawn) [Example 18, 6-(2,4-dimethylphenyl)-2-(5-methylpyridin-2-yl)-5,6,7,8-tetrahydrophthalazin-1(2H)-one] the value was < 500 nM; for `Cc1ccc(C2CCc3c(cnn(-c4cccc(C)n4)c3=O)C2)c(C)c1` (stereo not drawn) [Example 17, 6-(2,4-dimethylphenyl)-2-(6-methylpyridin-2-yl)-5,6,7,8-tetrahydrophthalazin-1(2H)-one], < 500 nM.
For the compound `O=c1c2c(cnn1-c1ncccn1)CC(c1cccc(OC3CC3)c1Cl)CC2` (single isomer, unassigned; (-)) [Example 130, (−)-6-(2-chloro-3-cyclopropoxyphenyl)-2-(pyrimidin-2-yl)-5,6,7,8-tetrahydrophthalazin-1(2H)-one], the half-inhibitory concentration (IC50) is < 500 nM.
With `Cc1c(OC(C)C)cccc1C1CCc2c(cnn(-c3ncccn3)c2=O)C1` (stereo not drawn) [Example 103, 6-(3-isopropoxy-2-methylphenyl)-2-(pyrimidin-2-yl)-5,6,7,8-tetrahydrophthalazin-1(2H)-one], the IC50 lay in the range of 1000 to 30000 nM.
Next, `Cc1c(OC2CC2)cccc1C1CCc2c(cnn(-c3ncccn3)c2=O)C1` (single isomer, unassigned; (-)) [Example 128, (−)-6-(3-cyclopropoxy-2-methylphenyl)-2-(pyrimidin-2-yl)-5,6,7,8-tetrahydrophthalazin-1(2H)-one]: < 500 nM; `O=c1c2c(cnn1-c1ncccn1)CC(c1cccc3c1ccn3C1CC1)CC2` (stereo not drawn) [Example 124, 6-(1-cyclopropyl-1H-indol-4-yl)-2-(pyrimidin-2-yl)-5,6,7,8-tetrahydrophthalazin-1(2H)-one]: < 500 nM.
